In patent publication US10414774B2, “Compound useful for altering the levels of bile acids for the treatment of diabetes and cardiometabolc disease” (Merck Sharp & Dohme Corp., priority 2016, dated 2019):

Each molecule was assayed against T1, Human CYP8B1 (Homo sapiens, UniProt Q9UNU6) (assay: Human CYP8B1 Liver Microsome Assay). Details: Human CYP8B1 IC50, human liver microsomes; substrate 7a-hydroxy-4-cholesten-3-one, NADPH; RapidFire MS detection of 7α,12α-dihydroxy-4-cholesten-3-one.
T1 sequence (Q9UNU6 1-501): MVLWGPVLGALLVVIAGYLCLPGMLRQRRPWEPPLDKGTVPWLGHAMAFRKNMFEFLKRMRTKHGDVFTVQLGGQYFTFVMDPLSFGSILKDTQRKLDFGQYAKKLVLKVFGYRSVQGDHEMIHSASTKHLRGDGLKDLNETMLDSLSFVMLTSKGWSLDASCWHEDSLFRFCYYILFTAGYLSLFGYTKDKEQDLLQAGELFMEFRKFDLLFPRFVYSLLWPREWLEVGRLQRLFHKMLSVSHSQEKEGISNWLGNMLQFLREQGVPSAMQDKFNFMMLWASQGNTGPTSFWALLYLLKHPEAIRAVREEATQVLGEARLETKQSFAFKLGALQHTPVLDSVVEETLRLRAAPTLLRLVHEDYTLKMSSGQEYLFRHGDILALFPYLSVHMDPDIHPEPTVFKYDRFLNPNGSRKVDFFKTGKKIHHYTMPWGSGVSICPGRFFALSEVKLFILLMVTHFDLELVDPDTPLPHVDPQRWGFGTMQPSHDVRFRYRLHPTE
Protocol: To a 384 well polypropylene plate (Corning 3656), 250 nl of inhibitor in 100% DMSO (1.25% final DMSO concentration) was pre-plated using an Echo liquid handler (Labcyte Inc.). Human liver microsomes (Xenotech) were diluted in of 0.1 M phosphate buffer, pH 7.4, at a concentration of 65 μg/ml and 15 μL was added to the 384 well plate. The plates were incubated at ambient room temperature for 30 minutes. After pre-incubation with inhibitor, the reaction was initiated by adding 5 μl of substrate solution (4.0 μM 7a-hydroxy-4-cholesten-3-one (Toronto Research Chemicals), 2 mM of NADPH (Sigma), 0.1 M phosphate buffer (pH 7.4). The reaction was carried out for 45 minutes at ambient room temperature and was quenched by the addition of 50 μl of acetonitrile+0.1% vol/vol formic acid (FA)+300 nM 7α-hydroxy-4-cholesten-3-one-d7 (Toronto Research Chemicals). The plates were sealed and centrifuged at 3000 rpm for 5 minutes. Plates were loaded onto the Agilent RapidFire RF300 HTMS system, wherein samples were sipped for 600 ms, and the sip sensor detection signals the diversion of sample from the loop onto a C4 solid phase extraction (SPE) cartridge, where salts are washed off for 2500 ms with a mobile phase of water with 0.1% vol/vol FA at a flow rate of 1.5 ml/min. The column path was switched, and the sample was eluted off the cartridge and flowed into the mass spectrometer for 3000 ms with a mobile phase of acetonitrile and 0.1% vol/vol FA at a flow rate of 1.25 ml/min. The aspirator tip was washed separately with water and acetonitrile between sample aspirations (each for 600 ms) to minimize carryover contamination. Mass spectrometry was carried out using a Sciex API4000 triple quadrupole mass spectrometer (Applied Biosystems, Concord, ON, Canada) equipped with electrospray ionization (ESI) operated in the positive-ion mode. The product 7α,12α-dihydroxy-4-cholesten-3-one and internal standard 7α-hydroxy-4-cholsten-3-one-d7 were detected using multiple reaction monitoring (MRM) with Q1/Q3 transitions at m/z 417.3 to 381.3 and m/z 408.3 to 390.3, respectively, with a dwell time of 100 ms and a collision energy of 24 V for each transition. The mass spectrometer used an ESI voltage of 5000 V and a source temperature of 650° C. Extracted ion chromatograms for each transition were integrated and processed using the RapidFire Integrator software. The data for each well were normalized by monitoring product conversion with the ratio of AUCproduct/(AUCinternal standard). The data was then fitted to a four parameter logistic fit using ActivityBase Software to calculate an IC50 of the inhibitor.

`C[C@@H]1CN(c2c(C#N)cnc3ccccc23)CC[C@@H]1C(=O)N1CCn2c(nnc2C(F)(F)F)C1` [Example 79, 4-[(3S,4S)-3-methyl-4-{[3-(trifluoromethyl)-5,6-dihydro[1,2,4]triazolo[4,3-a]pyrazin-7(8H)-yl]carbonyl}piperidin-1-yl]quinoline-3-carbonitrile] and `CC1CN(c2c(C#N)cnc3ccc(F)cc23)CCC1C(=O)N1CCn2c(nnc2C(F)(F)F)C1` (centres unmarked) [Example 117, 6-fluoro-4-(3-methyl-4-{[3-(trifluoromethyl)-5,6-dihydro[1,2,4]triazolo[4,3-a]pyrazin-7(8H)-yl]carbonyl}piperidin-1-yl)quinoline-3-carbonitrile] are within 1.5-fold of each other in IC50: 1.6 nM for the first, 1.2 nM for the second.

Going from `Cc1nc2ccc(Cl)cc2c(N2CC[C@H](C(=O)N3CCn4cc(C(F)(F)F)nc4C3)[C@H](C)C2)c1C#N` [Example 99, 6-chloro-2-methyl-4-[(3S,4S)-3-methyl-4-{[2-(trifluoromethyl)-5,6-dihydroimidazo[1,2-a]pyrazin-7(8H)-yl]carbonyl}piperidin-1-yl]quinoline-3-carbonitrile] to `Cc1nc2ccc(Cl)cc2c(N2CC[C@H](C(=O)N3CCn4c(nnc4C(F)(F)F)C3)[C@H](C)C2)c1C#N` [Example 122, 6-chloro-2-methyl-4-((3S,4S)-3-methyl-4-(3-(trifluoromethyl)-5,6,7,8-tetrahydro-[1,2,4]triazolo[4,3-a]pyrazine-7-carbonyl)piperidin-1-yl)quinoline-3-carbonitrile], the IC50 falls from 52 nM to 0.5 nM (100-fold). The second is the more potent here.

Going from `Cn1nc(C(F)(F)F)c2c1CN(C(=O)C1CCN(c3c(C#N)cnc4ccc(Cl)cc34)CC1)CC2` [Example 113, 6-chloro-4-(4-{[1-methyl-3-(trifluoromethyl)-1,4,5,7-tetrahydro-6H-pyrazolo[3,4-c]pyridin-6-yl]carbonyl}piperidin-1-yl)quinoline-3-carbonitrile] to `N#Cc1cnc2ccc(Cl)cc2c1N1CCC(C(=O)N2CCc3cn[nH]c3C2)CC1` [Example 108, 6-chloro-4-[4-(1,4,5,7-tetrahydro-6H-pyrazolo[3,4-c]pyridin-6-ylcarbonyl)piperidin-1-yl]quinoline-3-carbonitrile], the IC50 rises from 16.1 nM to 142 nM (8.8-fold). The first is the more potent here.

`Cc1nc2ccc(Cl)cc2c(N2CC[C@H](C(=O)N3CCc4oncc4C3)[C@H](C)C2)c1C#N` [Example 97, 6-chloro-4-[(3S,4S)-4-(6,7-dihydroisoxazolo[4,5-c]pyridin-5(4H)-ylcarbonyl)-3-methylpiperidin-1-yl]-2-methylquinoline-3-carbonitrile] and `Cc1nc2ccc(Cl)cc2c(N2CC[C@H](C(=O)N3CCn4cccc4C3)[C@H](C)C2)c1C#N` [Example 91, 6-chloro-4-[(3S,4S)-4-(3,4-dihydropyrrolo[1,2-a]pyrazin-2(1H)-ylcarbonyl)-3-methylpiperidin-1-yl]-2-methylquinoline-3-carbonitrile] are within 1.5-fold of each other in IC50: 4.2 nM for the first, 5.8 nM for the second.

Compared with `C[C@@H]1CN(c2c(C#N)cnc3cc(C4CC4)ccc23)CC[C@@H]1C(=O)N1CCn2c(nnc2C(F)(F)F)C1` [Example 63], `C[C@@H]1CN(c2c(C#N)cnc3cc(OCC4CC4)ccc23)CC[C@@H]1C(=O)N1CCn2c(nnc2C(F)(F)F)C1` [Example 100, 7-(cyclopropylmethoxy)-4-[(3S,4S)-3-methyl-4-{[3-(trifluoromethyl)-5,6-dihydro[1,2,4]triazolo[4,3-a]pyrazin-7(8H)-yl]carbonyl}piperidin-1-yl]quinoline-3-carbonitrile] is 3.1-fold lower in IC50: 1.1 nM for the first, 0.35 nM for the second. The second is the more potent here.

`[2H]C([2H])([2H])Oc1ccc2c(N3CC[C@H](C(=O)N4CCn5c(nnc5C(F)(F)F)C4)[C@H](C)C3)c(C#N)cnc2c1` [Example 80, 7-[(^2H3)methyloxy]-4-[(3S,4S)-3-methyl-4-{[3-(trifluoromethyl)-5,6-dihydro[1,2,4]triazolo[4,3-a]pyrazin-7(8H)-yl]carbonyl}piperidin-1-yl]quinoline-3-carbonitrile] and `C[C@@H]1CN(c2c(C#N)cnc3cc(C(F)(F)F)ccc23)CC[C@@H]1C(=O)N1CCn2c(nnc2C(F)(F)F)C1` [Example 24, 4-((3S,4S)-3-methyl-4-(3-(trifluoromethyl)-5,6,7,8-tetrahydro-[1,2,4]triazolo[4,3-a]pyrazine-7-carbonyl)piperidin-1-yl)-7-(trifluoromethyl)quinoline-3-carbonitrile] are within 1.5-fold of each other in IC50: 0.35 nM for the first, 0.4 nM for the second.

Compared with `N#Cc1cnc2ccc(Cl)cc2c1N1CCN(C(=O)N2CCn3c(nnc3C(F)(F)F)C2)C2(CC2)C1` [Example 127, 6-chloro-4-(4-{[3-(trifluoromethyl)-5,6-dihydro[1,2,4]triazolo[4,3-a]pyrazin-7(8H)-yl]carbonyl}-4,7-diazaspiro[2.5]oct-7-yl)quinoline-3-carbonitrile], `N#Cc1cnc2ccc(Cl)cc2c1N1CCN(C(=O)N2CCn3c(nnc3C(F)(F)F)C2)CC1` [Example 129, 6-chloro-4-(4-{[3-(trifluoromethyl)-5,6-dihydro[1,2,4]triazolo[4,3-a]pyrazin-7(8H)-yl]carbonyl}piperazin-1-yl)quinoline-3-carbonitrile] is 3.9-fold higher in IC50: 98 nM for the first, 386 nM for the second.

Going from `COc1cccc2c(N3CC[C@H](C(=O)N4CCn5c(nnc5C(F)(F)F)C4)[C@H](C)C3)c(C#N)cnc12` [Example 11, 8-methoxy-4-[(3S,4S)-3-methyl-4-{[3-(trifluoromethyl)-5,6-dihydro[1,2,4]triazolo[4,3-a]pyrazin-7(8H)-yl]carbonyl}piperidin-1-yl]quinoline-3-carbonitrile] to `C[C@@H]1CN(c2c(C#N)cnc3c(F)c(F)ccc23)CC[C@@H]1C(=O)N1CCn2c(nnc2C(F)(F)F)C1` [Example 8, 7,8-difluoro-4-[(3S,4S)-3-methyl-4-{[3-(trifluoromethyl)-5,6-dihydro[1,2,4]triazolo[4,3-a]pyrazin-7(8H)-yl]carbonyl}piperidin-1-yl]quinoline-3-carbonitrile], the IC50 falls from 2.5 nM to 1.3 nM (1.9-fold). The second is the more potent here.

Compared with `COc1nc2ccc(Cl)cc2c(N2CCC(C(=O)N3CCn4c(nnc4C(F)(F)F)C3)C(C)C2)c1C#N` (centres unmarked) [Example 126, 6-chloro-2-methoxy-4-(3-methyl-4-{[3-(trifluoromethyl)-5,6-dihydro[1,2,4]triazolo[4,3-a]pyrazin-7(8H)-yl]carbonyl}piperidin-1-yl)quinoline-3-carbonitrile], `C[C@@H]1CN(c2c(C#N)c(Cl)nc3ccc(Cl)cc23)CC[C@@H]1C(=O)N1CCn2c(nnc2C(F)(F)F)C1` [Example 56, 2,6-dichloro-4-[(3S,4S)-3-methyl-4-{[3-(trifluoromethyl)-5,6-dihydro[1,2,4]triazolo[4,3-a]pyrazin-7(8H)-yl]carbonyl}piperidin-1-yl]quinoline-3-carbonitrile] is 140-fold lower in IC50: 210 nM for the first, 1.5 nM for the second. The second is the more potent here.

Going from `CO[C@@H]1CN(c2c(C#N)cnc3ccc(Cl)cc23)CC[C@@H]1C(=O)N1CCn2c(nnc2C(F)(F)F)C1` [Example 72a, 6-chloro-4-[(3S,4S)-3-methoxy-4-{[3-(trifluoromethyl)-5,6-dihydro[1,2,4]triazolo[4,3-a]pyrazin-7(8H)-yl]carbonyl}piperidin-1-yl]quinoline-3-carbonitrile] to `COc1ccc2c(N3CCC(C(=O)N4CCn5c(C)nnc5C4)C(C)C3)c(C#N)cnc2c1` (centres unmarked) [Example 84, 7-methoxy-4-{3-methyl-4-[(3-methyl-5,6-dihydro[1,2,4]triazolo[4,3-a]pyrazin-7(8H)-yl)carbonyl]piperidin-1-yl}quinoline-3-carbonitrile], the IC50 falls from 22 nM to 3.3 nM (6.7-fold).
